Results reported in US20110230476A1, “PI3 KINASE INHIBITORS AND USES THEREOF” (AVILA THERAPEUTICS, INC., priority 2009, published 2011).

Tests used:
PI3Kα (p110α/p85α) = target: T1, PI3Kα (p110α/p85α) (Homo sapiens, UniProt P42336); test: HTRF assay, potency against active PI3Kα; format: biochemical; conditions: HTRF; [ATP]=50 μM, [di-C8-PIP2]=10 μM; 30 min pre-incubation; read-out: PI3Kα Inhibition
T1 construct: purchased BPS Bioscience (San Diego, Calif.) or Millipore (Billerica, Mass.)
How it was run: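 IC50 came from a variable-slope fit of % inhibition, calculated from the HTRF emission ratio relative to wells with and without enzyme. Reactions with the active enzyme complex ran 30-60 minutes at 25 °C after ATP addition before stop and detection reagents.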

Phospho-Akt(Ser473) [1] = test: Dose response in SKOV3 cells as determined by in-cell Western; format: cell-based; conditions: Homo sapiens, SK-OV-3; SKOV3 cells, 1 hr; read-out: pAKT Inhibition in cell Western
How it was run: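 SKOV3 cells treated with compound for 1 hr, then formaldehyde-fixed, permeabilised and stained overnight for phospho-Akt(Ser473) with anti-tubulin as a reference. Infrared secondary antibodies read at 680 and 800 nm channels by in-cell Western imaging.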

SKOV3 cells = test: GI50 determinations in SKOV3 cells; format: cell-based; conditions: Homo sapiens, SK-OV-3; SKOV3 cells, 96 hours, Cell Titer Glo
Description: GI50 Determinations in SKOV3 Cells
A standard curve ranging from 10,000 to 50,000 cells was set up in a separate plate and allowed to adhere to the plate for 4-6 hours, at which time the plate was developed using Cell Titer-Glow (Promega, Madison, Wis.) according to manufacturer's instructions.
The next morning, 3-fold compound dilutions ranging from 10,000 nM to 40 nM were prepared in Proliferation Media containing 1% DMSO. 20 ul of each dilution was added to the SKOV3 cells plated the previous day resulting in a dose response curve from 1000 nM to 4 nM. The cells were incubated for 96 hours and then developed with Cell Titer Glo.
The cell numbers at the end of the assay were determined using the standard curve generated at the start of the assay. Growth inhibition was calculated using the following formulas and GI50s were determined by plotting the % growth inhibition vs. Log compound concentration in GraphPad.
%growth=100×(T−T0)/(C−T0)
T=Cell Number at end of assay T0=Cell Number at start of assay (5000) C=Number of cells in DMSO controls at end of assay
%growth inhibition=100−%growth

PI3Kα = PI3Kα (Homo sapiens, UniProt P42336); test: Mass spectrometry of intact PI3Kα (Millipore, 14-602), 1 hr incubation; format: binding; set-up: purchased Millipore 14-602; conditions: 10× fold excess of compound, MALDI
PI3Kα, sequence (P42336 whole entry): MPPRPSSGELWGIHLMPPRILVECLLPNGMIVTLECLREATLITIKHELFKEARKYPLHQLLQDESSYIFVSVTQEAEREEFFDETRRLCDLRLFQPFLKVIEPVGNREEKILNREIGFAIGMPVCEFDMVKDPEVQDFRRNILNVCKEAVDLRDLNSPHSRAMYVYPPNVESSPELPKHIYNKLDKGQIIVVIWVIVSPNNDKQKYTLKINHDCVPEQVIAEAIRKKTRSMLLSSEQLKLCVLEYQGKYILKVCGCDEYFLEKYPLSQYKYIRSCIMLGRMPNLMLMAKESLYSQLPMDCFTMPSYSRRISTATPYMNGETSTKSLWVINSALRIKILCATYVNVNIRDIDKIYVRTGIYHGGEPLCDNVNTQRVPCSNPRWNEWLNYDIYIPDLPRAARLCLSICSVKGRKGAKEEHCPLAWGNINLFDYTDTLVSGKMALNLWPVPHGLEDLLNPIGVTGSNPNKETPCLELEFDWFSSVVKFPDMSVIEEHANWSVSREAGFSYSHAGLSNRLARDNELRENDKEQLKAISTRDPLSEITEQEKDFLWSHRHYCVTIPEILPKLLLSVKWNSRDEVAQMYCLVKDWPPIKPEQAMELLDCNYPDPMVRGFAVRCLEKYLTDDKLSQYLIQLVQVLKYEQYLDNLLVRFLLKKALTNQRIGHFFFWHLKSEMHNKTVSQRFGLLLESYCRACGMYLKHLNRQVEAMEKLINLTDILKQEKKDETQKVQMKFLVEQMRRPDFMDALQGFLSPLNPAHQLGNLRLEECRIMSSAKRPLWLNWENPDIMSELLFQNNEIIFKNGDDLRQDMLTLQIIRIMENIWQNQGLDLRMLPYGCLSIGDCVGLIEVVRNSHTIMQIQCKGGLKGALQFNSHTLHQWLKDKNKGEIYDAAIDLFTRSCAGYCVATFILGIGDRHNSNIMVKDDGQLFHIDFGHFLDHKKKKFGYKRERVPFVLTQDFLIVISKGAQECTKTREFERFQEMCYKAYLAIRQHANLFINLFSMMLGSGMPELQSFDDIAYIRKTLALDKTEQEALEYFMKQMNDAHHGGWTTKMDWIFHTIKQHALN
PI3Kα, sequence (P27986 whole entry partner): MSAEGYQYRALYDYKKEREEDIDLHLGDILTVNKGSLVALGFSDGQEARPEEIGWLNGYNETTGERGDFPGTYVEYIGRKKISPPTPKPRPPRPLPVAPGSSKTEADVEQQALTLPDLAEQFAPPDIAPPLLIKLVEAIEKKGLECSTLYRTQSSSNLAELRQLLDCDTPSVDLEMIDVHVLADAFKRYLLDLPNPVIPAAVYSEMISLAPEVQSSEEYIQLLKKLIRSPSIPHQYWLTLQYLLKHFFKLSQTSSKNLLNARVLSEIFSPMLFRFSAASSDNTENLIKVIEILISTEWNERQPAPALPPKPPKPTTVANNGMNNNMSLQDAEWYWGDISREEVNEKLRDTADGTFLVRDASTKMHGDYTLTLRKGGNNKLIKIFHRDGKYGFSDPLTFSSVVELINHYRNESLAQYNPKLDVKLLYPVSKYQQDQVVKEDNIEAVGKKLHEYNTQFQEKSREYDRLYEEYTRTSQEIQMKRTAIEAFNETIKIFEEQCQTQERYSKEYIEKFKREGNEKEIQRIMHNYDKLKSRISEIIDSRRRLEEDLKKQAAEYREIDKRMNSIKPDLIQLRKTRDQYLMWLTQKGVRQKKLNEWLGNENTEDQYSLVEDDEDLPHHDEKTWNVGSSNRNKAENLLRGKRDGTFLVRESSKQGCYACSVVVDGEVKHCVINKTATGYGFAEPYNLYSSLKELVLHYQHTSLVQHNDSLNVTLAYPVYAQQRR
Description: Mass Spectrometry for PI3K
Aliquots (5 μl) of the samples were diluted with 15 μl of 0.2% TFA prior to micro C4 ZipTipping directly onto the MALDI target using Sinapinic acid as the desorption matrix (10 mg/ml in 0.1% TFA:Acetonitrile 50:50).

PI3Kγ (p120γ) = target: T2, PI3Kγ (p120γ) (Homo sapiens, UniProt P48736); test: HTRF assay, potency against active PI3Kγ; format: biochemical; conditions: [ATP]=50 μM, [di-C8-PIP2]=10 μM, 30 min pre-incubation, read-out: PI3Kγ Inhibition
T2 construct: purchased BPS Bioscience (San Diego, Calif.) or Millipore (Billerica, Mass.)
T2 sequence (P48736 whole entry): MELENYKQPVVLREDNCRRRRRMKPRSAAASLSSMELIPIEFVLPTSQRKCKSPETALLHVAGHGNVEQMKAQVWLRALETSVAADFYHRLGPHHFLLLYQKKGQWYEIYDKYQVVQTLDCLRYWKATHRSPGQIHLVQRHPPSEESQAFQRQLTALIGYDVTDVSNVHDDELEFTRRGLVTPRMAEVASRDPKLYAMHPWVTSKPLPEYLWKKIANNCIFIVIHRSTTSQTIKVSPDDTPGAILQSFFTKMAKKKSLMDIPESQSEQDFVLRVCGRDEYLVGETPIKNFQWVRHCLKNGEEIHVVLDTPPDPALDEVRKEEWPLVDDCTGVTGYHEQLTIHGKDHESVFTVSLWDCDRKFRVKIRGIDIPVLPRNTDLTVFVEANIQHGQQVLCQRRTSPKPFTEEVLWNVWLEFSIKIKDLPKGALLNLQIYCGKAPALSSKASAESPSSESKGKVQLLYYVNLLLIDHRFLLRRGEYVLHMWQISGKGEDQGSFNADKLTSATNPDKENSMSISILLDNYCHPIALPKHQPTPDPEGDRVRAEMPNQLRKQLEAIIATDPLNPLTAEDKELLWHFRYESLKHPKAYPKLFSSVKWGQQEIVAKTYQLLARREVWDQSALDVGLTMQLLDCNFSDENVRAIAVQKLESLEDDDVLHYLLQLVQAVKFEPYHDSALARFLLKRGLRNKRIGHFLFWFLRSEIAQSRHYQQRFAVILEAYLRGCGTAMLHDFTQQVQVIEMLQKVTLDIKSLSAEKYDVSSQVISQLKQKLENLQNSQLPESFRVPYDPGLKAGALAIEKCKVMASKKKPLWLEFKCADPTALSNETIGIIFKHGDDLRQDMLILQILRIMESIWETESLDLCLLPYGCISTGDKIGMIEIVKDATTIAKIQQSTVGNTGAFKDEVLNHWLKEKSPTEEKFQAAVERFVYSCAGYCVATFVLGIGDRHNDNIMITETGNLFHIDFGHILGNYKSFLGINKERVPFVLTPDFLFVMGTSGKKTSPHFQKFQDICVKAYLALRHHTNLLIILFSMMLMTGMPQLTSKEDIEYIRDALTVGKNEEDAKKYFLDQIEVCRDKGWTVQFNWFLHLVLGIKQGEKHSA
How it was run: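 End-point competition HTRF: enzyme (p110β/p85α 0.75 nM; p120γ 2-2.5 nM) with 10 μM di-C8-PIP2 pre-incubated 30 min at 25° C with compound, then 50 μM ATP added for 30-60 min at 25° C. Stopped, detected after 1 and 18 h; IC50 from variable-slope fit.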

Phospho-Akt(Ser473) [2] = test: Dose response in SKOV3 cells as determined by Western blot; format: cell-based; conditions: Homo sapiens, SK-OV-3, 1 hr, Phospho-Akt normalized to total Akt, read-out: Immunoblot
Description: Dose Response in SKOV3 Cells as Determined by Western Blot
SKOV3 cells were plated in SKOV3 Growth Media (DMEM supplemented with 10% FBS and pen/strep) at a density of 4×10^5 cells per well of 12 well plates. Twenty four hours later the media was removed and replaced with 1 ml media containing test compound and 0.1% DMSO and cells were returned to the incubator for 1 hr. At the end of the hour, the media was removed and the cells were washed with PBS, then lysed and scraped into 30 ul of Cell Extraction Buffer (Biosource, Camarillo, Calif.) plus Complete Protease Inhibitor and PhosStop Phosphatase Inhibitor (Roche, Indianapolis, Ind.).
Cell debris was spun down at 13,000×g for 1 minute and the supernatant was taken as the cell lysate. Protein concentration of the lysate was determined by BCA Assay (Pierce Biotechnology, Rockford, Ill.) and 50 ug of protein was loaded per well onto a NuPAGE Novex 4-12% Bis-Tris gel (Invitrogen, Carlsbad, Calif.) then transferred to Immobilon PVDF-FL (Millipore, Billerica, Mass.).
The blot was blocked in Odyssey Blocking Buffer (Li-Cor Biosciences, Lincoln, Nebr.) for 1 hr then incubated overnight at 4° C. with mouse anti-Akt (#2920) and rabbit anti-Phospho-Akt(Ser473) (#9271)(Cell Signaling Technology, Boston, Mass.) antibodies, both diluted 1:1000 in PBS/Odyssey Buffer (1:1)+0.1% Tween-20. The blots were washed 3 times 5 minutes in PBS+0.2% Tween-20 then incubated for 1 hr at room temperature with fluorescently labeled secondary antibodies (Li-Cor) diluted 1:10000 in PBS/Odyssey Buffer (1:1)+0.1% Tween-20.
The blots were washed 2 times for 5 minutes in PBS+0.2% Tween-20, once in distilled water, then scanned on an Odyssey machine (Li-Cor). Band intensity was determined using the Odyssey software and Phopho-Akt signal was normalized to total Akt within samples, then expressed as a percentage of the untreated Phospho-Akt signal.

T1 sequence (P42336 whole entry): as the sequence (P42336 whole entry) above
T1 sequence (P27986 whole entry partner): as the sequence (P27986 whole entry partner) above

Compound	IC50 (PI3Kα (p110α/p85α))	EC50 (Phospho-Akt(Ser473) [1])	GI50 (SKOV3 cells)	covalent modification of PI3Kα (PI3Kα)	IC50 (PI3Kγ (p120γ))	EC50 (Phospho-Akt(Ser473) [2])
CC(C)=CC(=O)c1ccc(CCNC(=O)c2cc(-c3cnc(N)nc3C)nc(N3CCOCC3)c2)cc1 [XII-15, 2-(2-amino-4-methylpyrimidin-5-yl)-N-(4-(3-methylbut-2-enoyl)phenethyl)-6-morpholinoisonicotinamide]	100 to 1000 nM	–	–	similarly modify	–	–
C=CC(=O)Nc1ccc(C(=O)NCCOc2ccc3c(c2OC)N=C(NC(=O)c2cccnc2)N2CCN=C32)cc1 [IX-5, N-(8-(2-(4-acrylamidobenzamido)ethoxy)-7-methoxy-2,3-dihydroimidazo[1,2-c]quinazolin-5-yl)nicotinamide]	10 to 100 nM	–	10 to 100 nM	–	–	–
CC(C)=CC(=O)CCCC(=O)N1CC=C(c2cc3nc(-c4cnc(N)nc4)cc(N4CCOCC4)c3s2)CC1 [II-g-3, 1-(4-(5-(2-aminopyrimidin-5-yl)-7-morpholinothieno[3,2-b]pyridin-2-yl)-5,6-dihydropyridin-1(2H)-yl)-7-methyloct-6-ene-1,5-dione]	100 to 1000 nM	≤ 10 nM	–	–	100 to 1000 nM	100 to 1000 nM
C=CC(=O)Nc1ccc(C(=O)N2CC=C(c3cc4nc(-c5cnc(N)nc5)cc(N5CCOCC5)c4s3)CC2)cc1 [II-g-2, N-(4-(4-(5-(2-aminopyrimidin-5-yl)-7-morpholinothieno[3,2-b]pyridin-2-yl)-1,2,3,6-tetrahydropyridine-1-carbonyl)phenyl)acrylamide]	100 to 1000 nM	≤ 10 nM	100 to 1000 nM	–	100 to 1000 nM	–
C=CC(=O)Nc1cc(C(=O)N2CC=C(c3cc4nc(-c5cnc(N)nc5)nc(N5CCOCC5)c4s3)CC2)ccc1Cl [II-a-159, N-(5-(4-(2-(2-aminopyrimidin-5-yl)-4-morpholinothieno[3,2-d]pyrimidin-6-yl)-1,2,3,6-tetrahydropyridine-1-carbonyl)-2-chlorophenyl)acrylamide]	10 to 100 nM	–	100 to 1000 nM	–	–	–
C=CC(=O)Nc1ccc(CC(=O)N2CCC(n3ncc4c(N5CCOCC5)nc(-c5ccc(NC(=O)NC)cc5)nc43)CC2)cc1 [VII-9, N-(4-(2-(4-(6-(4-(3-methylureido)phenyl)-4-morpholino-1H-pyrazolo[3,4-d]pyrimidin-1-yl)piperidin-1-yl)-2-oxoethyl)phenyl)acrylamide]	100 to 1000 nM	100 to 1000 nM	100 to 1000 nM	–	–	–
C=CC(=O)Nc1ccc(C(=O)N2CCC(n3ncc4c(N5CCOCC5)nc(-c5ccc(NC(=O)NC)cc5)nc43)CC2)cc1 [VII-8, N-(4-(4-(6-(4-(3-methylureido)phenyl)-4-morpholino-1H-pyrazolo[3,4-d]pyrimidin-1-yl)piperidine-1-carbonyl)phenyl)acrylamide]	100 to 1000 nM	100 to 1000 nM	100 to 1000 nM	–	–	–
CC(C)=CC(=O)CCc1ccc(C#Cc2cc(-c3cnc(N)nc3C)nc(N3CCOCC3)c2)cc1 [XII-18, 1-(4-((2-(2-amino-4-methylpyrimidin-5-yl)-6-morpholinopyridin-4-yl)ethynyl)phenyl)-5-methylhex-4-en-3-one]	> 1000 nM	–	–	similarly modify	–	–
C=CC(=O)Nc1ccc(COCc2cc3nc(-c4cnc(N)nc4)nc(N4CCOCC4)c3s2)cc1 [II-a-173, N-(4-(((2-(2-aminopyrimidin-5-yl)-4-morpholinothieno[3,2-d]pyrimidin-6-yl)methoxy)methyl)phenyl)acrylamide]	100 to 1000 nM	10 to 100 nM	–	–	–	≤ 10 nM
CNC(=O)Nc1ccc(-c2nc(N3CCOCC3)c3cnn(C4CCN(C(=O)CCC(=O)/C=C/c5ccccc5)CC4)c3n2)cc1 [VII-10, (E)-1-methyl-3-(4-(4-morpholino-1-(1-(4-oxo-6-phenylhex-5-enoyl)piperidin-4-yl)-1H-pyrazolo[3,4-d]pyrimidin-6-yl)phenyl)urea]	100 to 1000 nM	–	10 to 100 nM	–	–	–

More lines, main results first:

IC50 (PI3Kα (p110α/p85α))	EC50 (Phospho-Akt(Ser473) [1])	GI50 (SKOV3 cells)	covalent modification of PI3Kα (PI3Kα)	IC50 (PI3Kγ (p120γ))	Compound	EC50 (Phospho-Akt(Ser473) [2])
100 to 1000 nM	≤ 10 nM	100 to 1000 nM	–	–	C=CC(=O)Nc1ccc(C(=O)N2CCN(C(=O)c3cc4nc(-c5cccc6[nH]ncc56)nc(N5CCOCC5)c4s3)CC2)cc1 [II-a-143, N-(4-(4-(2-(1H-indazol-4-yl)-4-morpholinothieno[3,2-d]pyrimidine-6-carbonyl)piperazine-1-carbonyl)phenyl)acrylamide]	–
10 to 100 nM	–	100 to 1000 nM	–	–	O=C(/C=C(/c1ccccc1)C(F)(F)F)CCC(=O)N1CCN(Cc2cc3nc(-c4cccc5[nH]ncc45)nc(N4CCOCC4)c3s2)CC1 [II-a-158, (Z)-1-(4-((2-(1H-indazol-4-yl)-4-morpholinothieno[3,2-d]pyrimidin-6-yl)methyl)piperazin-1-yl)-7,7,7-trifluoro-6-phenylhept-5-ene-1,4-dione]	–
10 to 100 nM	≤ 10 nM	10 to 100 nM	–	–	C=C(CC)C(=O)CCC(=O)N1CCN(Cc2cc3nc(-c4cccc5[nH]ncc45)nc(N4CCOCC4)c3s2)CC1 [II-a-86, 1-(4-((2-(1H-indazol-4-yl)-4-morpholinothieno[3,2-d]pyrimidin-6-yl)methyl)piperazin-1-yl)-5-methyleneheptane-1,4-dione]	–
10 to 100 nM	–	–	–	> 1000 nM	C/C=C/C(=O)CCCC(=O)N1CCN(Cc2cc3nc(-c4cccc5[nH]ncc45)nc(N4CCOCC4)c3s2)CC1 [II-a-22, (E)-1-(4-((2-(1H-indazol-4-yl)-4-morpholinothieno[3,2-d]pyrimidin-6-yl)methyl)piperazin-1-yl)oct-6-ene-1,5-dione]	10 to 100 nM
100 to 1000 nM	–	100 to 1000 nM	–	–	CNC(=O)Nc1ccc(-c2nc(N3CCOCC3)c3cnn(C4CCN(C(=O)CCCC(=O)/C=C/c5ccccc5)CC4)c3n2)cc1 [VII-11, (E)-1-methyl-3-(4-(4-morpholino-1-(1-(5-oxo-7-phenylhept-6-enoyl)piperidin-4-yl)-1H-pyrazolo[3,4-d]pyrimidin-6-yl)phenyl)urea]	–
10 to 100 nM	≤ 10 nM	–	–	> 1000 nM	C=C(C)C(=O)CCCC(=O)N1CCN(Cc2cc3nc(-c4cccc5[nH]ncc45)nc(N4CCOCC4)c3s2)CC1 [II-a-14]	10 to 100 nM
> 1000 nM	10 to 100 nM	100 to 1000 nM	–	–	O=C(/C=C/c1ccccn1)CCC(=O)NCC12CCC(c3cc4nc(-c5cccc6[nH]ncc56)nc(N5CCOCC5)c4s3)(CC1)OC2 [II-a-163, (E)-N-((1-(2-(1H-indazol-4-yl)-4-morpholinothieno[3,2-d]pyrimidin-6-yl)-2-oxabicyclo[2.2.2]octan-4-yl)methyl)-4-oxo-6-(pyridin-2-yl)hex-5-enamide]	–
